Results: PMC9455338, “Design, synthesis, and biological evaluation of potent FAK-degrading PROTACs” (Journal of Enzyme Inhibition and Medicinal Chemistry, 2022)

How the values were obtained:
FAK [1] = target: T1, FAK (Homo sapiens, UniProt Q05397); test: biochemical; set-up: HTRF KinEASE-TK kinase assay with purified FAK, inhibition of substrate phosphorylation; details: for inhibition at 0.1 µM: read-out: FAK inhibition (%)^a / 0.1 μM; for inhibition at 0.5 µM: read-out: FAK inhibition (%)^a / 0.5 μM
T1 construct: gene PTK2
Experimental: The FAK kinase assay was performed using the HTRF® KinEASE™-TK kit (Cisbio Bioassays, France) in white 384-well small volume plates with a total working volume of 20 μL. Purified FAK enzyme was purchased from Carna Biosciences (Japan). Compounds were diluted step-by-step from a concentrated stock of 8 mM in 100% DMSO and with serial kinase reaction buffer dilutions. The IC50 measurements were performed in replicates. […] The assay plates were incubated at 30 °C for 50 min and reactions were terminated by adding 10 μL of mix 2 (Sa-XL665 + TK-Antibody-Cryptate). After a final incubation (60 min at room temperature), HTRF signals were obtained by reading plates using an Infinite® F500 microplate reader (Tecan, Switzerland). […] For IC50 measurements, values were normalised and fitted with Graphpad prism 8.3.0.

FAK [2] = target: T1, FAK; test: HTRF KinEASE-TK kinase assay, purified FAK (Carna)
FAK [3] = target: T1, FAK; test: HTRF kinase assay, % inhibition at […]; type: biochemical

T1 sequence (Q05397 2-1052): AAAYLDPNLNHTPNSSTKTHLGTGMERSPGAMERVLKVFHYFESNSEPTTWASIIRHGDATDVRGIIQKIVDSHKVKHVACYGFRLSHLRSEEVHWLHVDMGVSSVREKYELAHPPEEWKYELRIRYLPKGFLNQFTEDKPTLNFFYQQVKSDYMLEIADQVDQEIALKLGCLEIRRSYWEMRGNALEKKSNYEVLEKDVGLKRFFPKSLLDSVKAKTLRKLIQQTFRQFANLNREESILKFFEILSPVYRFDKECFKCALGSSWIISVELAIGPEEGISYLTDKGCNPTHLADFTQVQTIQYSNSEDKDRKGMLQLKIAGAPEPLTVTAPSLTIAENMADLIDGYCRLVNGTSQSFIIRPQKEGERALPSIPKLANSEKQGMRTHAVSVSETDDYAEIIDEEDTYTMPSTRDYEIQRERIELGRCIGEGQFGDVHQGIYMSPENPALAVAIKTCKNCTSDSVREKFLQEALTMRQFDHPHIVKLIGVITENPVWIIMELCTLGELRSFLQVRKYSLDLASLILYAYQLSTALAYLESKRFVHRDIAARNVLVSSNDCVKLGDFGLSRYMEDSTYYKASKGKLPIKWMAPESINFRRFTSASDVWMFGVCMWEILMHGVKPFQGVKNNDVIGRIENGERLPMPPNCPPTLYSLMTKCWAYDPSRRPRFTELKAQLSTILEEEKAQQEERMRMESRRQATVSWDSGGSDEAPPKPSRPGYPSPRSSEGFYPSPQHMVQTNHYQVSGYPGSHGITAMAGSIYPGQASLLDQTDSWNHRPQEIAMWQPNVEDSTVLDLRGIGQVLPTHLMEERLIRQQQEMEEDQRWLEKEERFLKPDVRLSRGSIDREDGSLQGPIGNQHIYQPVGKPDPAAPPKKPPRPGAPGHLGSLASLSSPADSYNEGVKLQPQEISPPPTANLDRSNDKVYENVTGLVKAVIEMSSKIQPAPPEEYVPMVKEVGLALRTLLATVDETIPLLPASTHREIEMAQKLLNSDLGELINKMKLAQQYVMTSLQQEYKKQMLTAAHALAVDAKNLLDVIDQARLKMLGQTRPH

Structure (SMILES) | inhibition at 0.1 µM (FAK [1]) | inhibition at 0.5 µM (FAK [1]) | IC50 (FAK [2]) | inhibition at 0.1 µM (FAK [3])
CN(c1ccccc1CNc1nc(Nc2ccc(N3CCN(CCOCCOCCNC(=O)CNc4cccc5c4C(=O)N(C4CCC(=O)NC4=O)C5=O)CC3)cc2)ncc1C(F)(F)F)S(C)(=O)=O (stereo not shown) [A1, 2-{[2–(2,6-Dioxopiperidin-3-yl)-1,3-dioxoisoindolin-4-yl]amino}-N-(2-{2-[2–(4-{4-[(4-{[2-(N-methylmethylsulfonamido)benzyl]amino}-5-(trifluoromethyl)pyrimidin-2-yl)amino]phenyl}piperazin-1-yl)ethoxy]ethoxy}ethyl)acetamide] | 94.9% | 98% | 22.3 nM | 
CN(c1ccccc1CNc1nc(Nc2ccc(N3CCN(CCCOCCC(=O)NCCNc4cccc5c4C(=O)N(C4CCC(=O)NC4=O)C5=O)CC3)cc2)ncc1C(F)(F)F)S(C)(=O)=O (stereo not shown) [A2, N-(2-{[2–(2,6-dioxopiperidin-3-yl)-1,3-dioxoisoindolin-4-yl]amino}ethyl)-3-[3–(4-{4-[(4-{[2-(N-methylmethylsulfonamido)benzyl]amino}-5-(trifluoromethyl)pyrimidin-2-yl)amino]phenyl}piperazin-1-yl)propoxy]propanamide] |  | 98.8% |  | 89%
CN(c1ccccc1CNc1nc(Nc2ccc(N3CCN(CCCCC(=O)Nc4cccc5c4C(=O)N(C4CCC(=O)NC4=O)C5=O)CC3)cc2)ncc1C(F)(F)F)S(C)(=O)=O (stereo not shown) [A5] |  | 98% |  | 91.2%
CN(c1ccccc1CNc1nc(Nc2ccc(N3CCN(CCCCCC(=O)Nc4cccc5c4C(=O)N(C4CCC(=O)NC4=O)C5=O)CC3)cc2)ncc1C(F)(F)F)S(C)(=O)=O (stereo not shown) [A6, N-(2–(2,6-Dioxopiperidin-3-yl)-1,3-dioxoisoindol-4-yl)-6–(4-{4-[(4-{[2-(N-Methylmethylsulfonamido)benzyl]amino}-5-(trifluoromethyl)pyrimidin-2-yl)amino]phenyl}piperazin-1-yl)hexanamide] | 88.2% | 96.8% | 24.4 nM | 
CN(c1ccccc1CNc1nc(Nc2ccc(N3CCN(CCCCCCC(=O)Nc4cccc5c4C(=O)N(C4CCC(=O)NC4=O)C5=O)CC3)cc2)ncc1C(F)(F)F)S(C)(=O)=O (stereo not shown) [A7, N-[2–(2,6-Dioxopiperidin-3-yl)-1,3-dioxoisoindol-4-yl]-7–(4-{4-[(4-{[2-(N-Methylmethylsulfonamido)benzyl]amino}-5-(trifluoromethyl)pyrimidin-2-yl)amino]phenyl}piperazin-1-yl)heptamide] |  | 95.4% |  | 87.5%
CN(c1ccccc1CNc1nc(Nc2ccc(N3CCN(CCCCC(=O)NCCNc4cccc5c4C(=O)N(C4CCC(=O)NC4=O)C5=O)CC3)cc2)ncc1C(F)(F)F)S(C)(=O)=O (stereo not shown) [A11, N-(2-{[2–(2,6-Dioxopiperidin-3-yl)-1,3-dioxoisoindolin-4-yl]amino}ethyl)-5–(4 –{4-[(4-{[2-(N-Methylmethylsulfonamido)benzyl]amino}-5-(trifluoromethyl)pyrimidin-2-yl)amino]phenyl}piperazine-1-yl)pentanamide] |  | 98.6% |  | 93.5%
CN(c1ccccc1CNc1nc(Nc2ccc(N3CCN(CCCCCC(=O)NCCNc4cccc5c4C(=O)N(C4CCC(=O)NC4=O)C5=O)CC3)cc2)ncc1C(F)(F)F)S(C)(=O)=O (stereo not shown) [A12, N-(2-{[2–(2,6-Dioxopiperidin-3-yl)-1,3-dioxoisoindolin-4-yl]amino}ethyl)-6–(4-{4-[(4-{[2-(N-methylmethylsulfonamido)benzyl]amino}-5-(trifluoromethyl)pyrimidin-2-yl)amino]phenyl}piperazine-1-yl)hexanamide] |  | 98% |  | 86.1%
CN(c1ccccc1CNc1nc(Nc2ccc(N3CCN(CCCCCCC(=O)NCCNc4cccc5c4C(=O)N(C4CCC(=O)NC4=O)C5=O)CC3)cc2)ncc1C(F)(F)F)S(C)(=O)=O (stereo not shown) [A13, N-(2-{[2–(2,6-Dioxopiperidin-3-yl)-1,3-dioxoisoindolin-4-yl]amino}ethyl)-7–(4 -{4-[(4-{[2-(N-methylmethylsulfonamido)benzyl]amino}-5-(trifluoromethyl)pyrimidin-2-yl)amino]phenyl}piperazine-1-yl)heptamide] | 84.4% | 96.9% | 26.4 nM | 
